Assay results reported in US20140066488A1, “Inhibitors of Memapsin 2 Cleavage for the Treatment of Alzheimer's Disease” (Purdue Research Foundation, priority 2012, published 2014).
Where two headings read alike, the source gives them in different places.

How the values were obtained:
[1] = target: human CD (cathepsin D) (Homo sapiens, UniProt P07339); assay: enzyme inhibition of human cathepsin D (CD); type: biochemical; conditions: for Ki: human CD; for selectivity CD/BACE 1: ratio of Ki values; for selectivity against CD: BACE 1 over CD
[2] = target: β-secretase in neuroblastoma cells (Homo sapiens, UniProt P56817)
Source text: The inventors have also evaluated the cellular inhibition of β-secretase in neuroblastoma cells.

[3] = target: T1, recombinant BACE 2 (Homo sapiens, UniProt Q9Y5Z0); assay: enzyme inhibition of recombinant BACE 2; type: biochemical; conditions: for selectivity BACE 2/BACE 1: ratio of Ki values; for Ki: recombinant BACE 2
T1 sequence (Q9Y5Z0 63-518): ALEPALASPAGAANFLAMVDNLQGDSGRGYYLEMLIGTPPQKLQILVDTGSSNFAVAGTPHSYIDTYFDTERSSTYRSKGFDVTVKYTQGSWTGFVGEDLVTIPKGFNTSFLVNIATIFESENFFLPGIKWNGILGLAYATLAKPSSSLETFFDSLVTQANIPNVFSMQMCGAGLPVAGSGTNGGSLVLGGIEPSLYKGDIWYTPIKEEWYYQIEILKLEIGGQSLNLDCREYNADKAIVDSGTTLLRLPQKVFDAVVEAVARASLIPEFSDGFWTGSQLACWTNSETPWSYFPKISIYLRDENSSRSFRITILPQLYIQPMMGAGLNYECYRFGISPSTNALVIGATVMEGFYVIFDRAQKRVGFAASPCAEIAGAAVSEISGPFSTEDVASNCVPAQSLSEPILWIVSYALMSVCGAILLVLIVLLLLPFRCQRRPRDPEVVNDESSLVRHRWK

[4] = target: recombinant β-secretase (BACE 1, memapsin 2) (Homo sapiens, UniProt P56817); assay: BACE 1 enzyme inhibitory assay against recombinant β-secretase
Procedure: The BACE 1 inhibitory activity of synthetic inhibitors 4-9 was determined against recombinant β-secretase using previously reported assay protocols (Ermolieff et al., 2000).

[5] = read-out: IC50 (nM), cellular, determined in neuroblastoma cells
[6] = read-out: Ki (nM) BACE 1, recombinant β-secretase

Sequence of human CD (cathepsin D) (P07339 65-412): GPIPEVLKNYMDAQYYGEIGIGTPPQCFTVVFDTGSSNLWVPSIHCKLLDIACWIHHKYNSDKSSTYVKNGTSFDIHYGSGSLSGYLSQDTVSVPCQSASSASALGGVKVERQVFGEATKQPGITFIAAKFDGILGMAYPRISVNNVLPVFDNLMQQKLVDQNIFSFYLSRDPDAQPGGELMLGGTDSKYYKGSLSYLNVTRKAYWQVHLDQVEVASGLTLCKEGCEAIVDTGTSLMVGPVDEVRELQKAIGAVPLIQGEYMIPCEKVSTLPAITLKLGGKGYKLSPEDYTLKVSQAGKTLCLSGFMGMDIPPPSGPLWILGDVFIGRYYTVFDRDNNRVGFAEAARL
Sequence of β-secretase in neuroblastoma cells (P56817 46-501): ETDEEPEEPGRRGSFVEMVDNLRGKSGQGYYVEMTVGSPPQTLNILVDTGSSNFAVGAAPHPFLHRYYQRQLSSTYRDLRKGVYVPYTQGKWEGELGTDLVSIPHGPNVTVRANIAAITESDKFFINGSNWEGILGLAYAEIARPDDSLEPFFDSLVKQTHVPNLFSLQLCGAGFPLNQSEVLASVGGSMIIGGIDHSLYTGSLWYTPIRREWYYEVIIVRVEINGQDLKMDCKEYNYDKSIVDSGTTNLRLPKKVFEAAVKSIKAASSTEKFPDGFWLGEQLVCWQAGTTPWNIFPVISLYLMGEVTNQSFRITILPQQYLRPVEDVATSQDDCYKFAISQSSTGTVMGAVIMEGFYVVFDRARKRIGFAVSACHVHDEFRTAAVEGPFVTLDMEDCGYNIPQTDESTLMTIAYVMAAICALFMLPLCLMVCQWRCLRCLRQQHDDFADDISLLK
Sequence of recombinant β-secretase (BACE 1, memapsin 2) (P56817 46-501): as above

Compound	selectivity against CD (in words) [1]	Ki [1] [nM]	selectivity CD/BACE 1 [1]	IC50 [2, 5] [nM]	Ki [4, 6] [nM]	BACE 1 inhibitory activity (in words) ([4]; recombinant β-secretase)	further results
CCC[C@H](O)[C@H](NC[C@H](Cc1ccccc1)NC(=O)c1cc2c3c(c1)c(CC)cn3CC(C)(C)S(=O)(=O)N2C)C(=O)NCC(C)C [Inhibitor 20]	excellent selectivity	530	>14700	15	0.036	–	selectivity against BACE 2 (in words) [3]: good selectivity; selectivity BACE 2/BACE 1 [3]: >300; Ki [3]: 11 nM; potency enhancement ([4]; BACE 1 Ki, over unsubstituted inhibitor 19): > 10 fold
CC(C)CNC[C@@H](NC[C@H](Cc1ccccc1)NC(=O)c1cc(C(=O)N[C@H](C)c2ccccc2)cc(N(C)S(C)(=O)=O)c1)[C@H](C)O [Inhibitor 9]	–	–	–	–	–	total loss in potency	–
CCc1cn2c3c(cc(C(=O)N[C@H](CN[C@H](C(=O)NCC(C)C)[C@H](C)O)Cc4ccccc4)cc13)N(C)S(=O)(=O)C1(CC1)C2 [Inhibitor 21]	–	–	–	–	7.2	impressive potency	–
CC[C@H](NC[C@H](Cc1ccccc1)NC(=O)c1cc(C(=O)N[C@H](C)c2ccccc2)cc(N(C)S(C)(=O)=O)c1)C(=O)NCC(C)C [Inhibitor 4]	marginal selectivity	8260	>300	9.5	27	–	selectivity against BACE 2 (in words) [3]: marginal selectivity; selectivity against BACE 2 ([3]; BACE 1 over BACE 2): > 50 fold; selectivity BACE 2/BACE 1 [3]: >55; Ki [3]: 1450 nM
CCC[C@H](O)[C@H](NC[C@H](Cc1ccccc1)NC(=O)c1cc2c3c(c1)c(CC)cn3CC1(CC1)S(=O)(=O)N2C)C(=O)NCC(C)C [Inhibitor 22]	–	2000	>4200	–	–	impressive potency	selectivity against CD [1]: > 4200 fold; IC50 [2]: 14 nM; Ki [4]: 0.47 nM
CCC[C@H](O)[C@H](NC[C@H](Cc1ccccc1)NC(=O)c1cc2c3c(c1)c(CC)cn3CCS(=O)(=O)N2C)C(=O)NCC(C)C [Inhibitor 19]	improvement in CD selectivity	690	>1700	–	0.4	–	improvement in the potency ([4]; BACE 1 Ki, inhibitor 19 versus inhibitor 18): around 18 fold
CCc1cn2c3c(cc(C(=O)N[C@H](CN[C@H](C(=O)NCC(C)C)[C@H](C)O)Cc4ccccc4)cc13)N(C)S(=O)(=O)CC2 [Inhibitor 18]	–	7100	>970	22	7.3	–	selectivity against CD [1]: over 970 fold; ratio of cell inhibitory to enzyme inhibitory efficacy ([2]; cellular IC50 / BACE 1 Ki): 3
CC(C)CN(C)C(=O)[C@@H](NC[C@H](Cc1ccccc1)NC(=O)c1cc(C(=O)N[C@H](C)c2ccccc2)cc(N(C)S(C)(=O)=O)c1)[C@H](C)O [Inhibitor 7]	–	–	–	–	–	abolished all BACE 1 inhibitory activity	Ki [4]: > 1000 nM
CO[C@@H](C)[C@H](NC[C@H](Cc1ccccc1)NC(=O)c1cc(C(=O)N[C@H](C)c2ccccc2)cc(N(C)S(C)(=O)=O)c1)C(=O)NCC(C)C [Inhibitor 8]	–	–	–	–	25	substantial reduction in inhibitory potency	–
